This is an account of results in patent US7371766B2, “Curcumin analogs with anti-tumor and anti-angiogenic properties” (Emory University, priority 1999, dated 2008).

In one experiment the test system is MDA-MB-231. The experiment is described as follows: Emory Laboratory Cell Screen, Neutral Red, MDA-MB-231. Type of experiment: cell-based, human. Conditions: Homo sapiens, MDA-MB-231, Breast Cancer, 72 hours, read-out: Median Growth Inhibitory Concentration (GI50). How it is done:
(§1) Human tumor and endothelial cell lines were treated for 72 hours with compounds at a minimum of four concentrations between 0.1 μM-40 μM. Neutral Red assay was used to calculate cell viability.

For a further experiment, the system named is HUVECS. The experiment in a line: Emory Laboratory Cell Screen, Neutral Red, HUVECS. Type of experiment: cell-based, human. Conditions: Homo sapiens, HUVEC, 72 hours, read-out: Median Growth Inhibitory Concentration (GI50). The method, then:
as §1

The test system of experiment [1] is Tissue Factor (TF) production by human melanoma cell line RPMI-7951. The experiment in a line: TF ELISA, RPMI-7951. Type of experiment: cell-based. The method, then: (§2) IMUBIND Tissue Factor ELISA Kit (American Diagnostica Inc, Greenwich, Conn.) was used to determine TF concentration in each sample. The ELISA was carried out according to manufacturer's procedure.
(An ELISA detects its analyte on a solid surface through an enzyme-linked reagent.)

In experiment [2] the test system is Human tumor and endothelial cell lines. The experiment is described as follows: Emory Laboratory Cell Screen, mean over cell lines. Type of experiment: cell-based. The settings on record: Homo sapiens, Endothelial cell; Mean over the Emory cell lines; 72 hours; read-out: Median Growth Inhibitory Concentration (GI50), Mean. The method, then: as §1
Experiment [3] concerns Tissue Factor (TF) production by human prostate cancer cell line DU-145. The experiment in a line: TF ELISA, DU-145. Type of experiment: cell-based. The settings on record: 20 μM; for TF (% of DMSO): DMSO = 100%; for TF: mean of triplicate and S.D., DMSO 7699 ± 406. How it is done:
(§3) Cells were treated with 1% Triton X-100 in PBS and left overnight at 4° C. overnight to solubilize TF. […] IMUBIND Tissue Factor ELISA Kit (American Diagnostica Inc, Greenwich, Conn.) was used to determine TF concentration in each sample. The ELISA was carried out according to manufacturer's procedure.

Experiment [4] has as its system Vascular Endothelial Growth Factor (VEGF) production by human prostate cancer cell line PC-3. The experiment is described as follows: VEGF ELISA, PC-3. Conditions: for VEGF (% of DMSO): DMSO = 100%. It is filed as cell-based.
The next experiment relates to RPMI 7951. The experiment in a line: Emory Laboratory Cell Screen, Neutral Red, RPMI 7951. It is filed as cell-based, human. The settings on record: Homo sapiens, RPMI 7951, Melanoma, 72 hours, read-out: Median Growth Inhibitory Concentration (GI50). How it is done:
as §1

For experiment [5], the system named is Tissue Factor (TF) production by human prostate cancer cell line PC-3. The experiment is described as follows: TF ELISA, PC-3. It is filed as cell-based. The settings on record: 20 μM; for TF (% of DMSO): DMSO = 100%; for TF: mean of triplicate and S.D., DMSO 203 ± 6. How it is done:
as §3

Experiment [6] has as its system Vascular Endothelial Growth Factor (VEGF) production by human prostate cancer cell line DU-145. The experiment is described as follows: VEGF ELISA, DU-145. Conditions: for VEGF (% of DMSO): DMSO = 100%. Type of experiment: cell-based.
In experiment [7] the test system is Tissue Factor (TF) production by human breast cancer cell line MDA-MB-231. The experiment is described as follows: TF ELISA, MDA-MB-231. It is filed as cell-based. How it is done: as §2
A further experiment relates to MDA-MB-435. The experiment is described as follows: Emory Laboratory Cell Screen, Neutral Red, MDA-MB-435. Type of experiment: cell-based, human. Conditions: Homo sapiens, MDA-MB-435, Breast Cancer, 72 hours, read-out: Median Growth Inhibitory Concentration (GI50). The method, then: as §1
Setting [8] is: Table 5, 5 μM, DMSO control 7054.
Where [9] appears, read: Table 5, 20 μM, DMSO control 7054.
[10] abbreviates: 20 μM, mean of triplicate and S.D., DMSO 2103 ± 100.
Setting [11] is: Table 4, 20 μM, mean of triplicate and S.D.
[12] abbreviates: 20 μM, mean of triplicate and S.D., DMSO 18760 ± 2633.

Regarding `COc1cc(/C=C/C(=O)CC(=O)/C=C/c2ccc(O)c(OC)c2)ccc1O` [Curcumin], the GI50 in the experiment with MDA-MB-231 came out at 11.6 µM; in the experiment on HUVECS, 25 µM; in experiment [2], 14.8 µM; in the experiment on RPMI 7951, 6.3 µM; in the experiment with MDA-MB-435 it was 16.3 µM. The TF was determined as 126% in [1] (5 μM, DMSO = 100); 15% in [1] (20 μM, DMSO = 100); 8871 pg/mL in experiment [1] (setting [8]); 1026 pg/mL in experiment [1] (setting [9]); 7134 ± 301 pg/mL in experiment [3]; 138 ± 10 pg/mL in experiment [5]. Besides, the TF in [7] (5 μM, DMSO = 100) turned out to be 100%; in [7] (5 μM, DMSO control 45753), 45814 pg/mL; in experiment [7] (10 μM, DMSO = 100) it was 98%; in [7] (10 μM, DMSO control 45753), 44727 pg/mL. Moreover, the “TF ELISA” value in experiment [1] (5 μM, DMSO control 7054) is on record as 7974 pg/ml/well; in experiment [1] (20 μM, DMSO control 7054), 1026 pg/ml/well. For the same compound, the “TF (% of DMSO)” value in [3] is reported as “(93%)”; in [5], “(68%)”. In addition, the “VEGF (% of DMSO)” value in experiment [4] (20 μM) is on record as “(99%)”; in experiment [6] (20 μM) it was “(96%)”. In addition, the VEGF came to 2088 ± 103 pg/mL in experiment [4] (setting [10]); 99% in [4] (Table 4, 20 μM, DMSO = 100); 2088 ± 103 pg/mL in experiment [4] (setting [11]); 17957 ± 1910 pg/mL in experiment [6] (setting [12]); 96% in [6] (Table 4, 20 μM, DMSO = 100); 17957 ± 1910 pg/mL in [6] (setting [11]).
Consider `O=C1C(=Cc2ccccc2O)CCCC1=Cc1ccccc1O` [EF4, 2,6Bis(2-hydroxybenzylidene)cyclohexanone], for which the GI50 (in experiment [2]; in the experiment with RPMI 7951) was 3.6 µM throughout. The “TF (% of DMSO)” value is given as “(67%)” in experiment [3] and “(16%)” in [5]. Further, the TF in [3] was determined as 5180 ± 420 pg/mL; in [5], 33 ± 7 pg/mL. The “VEGF (% of DMSO)” value in experiment [4] (20 μM) is given as “(2%)”; in experiment [6] (20 μM) it was “(55%)”. Besides, the VEGF in [4] (setting [10]) came to 48 ± 83 pg/mL; in experiment [4] (Table 4, 20 μM, DMSO = 100) it was 2%; in experiment [4] (setting [11]) it was 48 ± 83 pg/mL; in experiment [6] (setting [12]), 10274 ± 4467 pg/mL; in experiment [6] (Table 4, 20 μM, DMSO = 100) it was 55%; in experiment [6] (setting [11]) it was 10274 ± 4467 pg/mL.
In the case of `C(=C\c1ccccc1)/S/C=C/c1ccccc1` [EF15], the TF in [1] (5 μM, DMSO = 100) turned out to be 106%; in experiment [1] (20 μM, DMSO = 100) it was 109%; in experiment [1] (setting [8]), 7506 pg/mL; in [1] (setting [9]) it was 7663 pg/mL; in experiment [7] (20 μM, DMSO = 100), 101%; in experiment [7] (20 μM, DMSO control 45753), 46394 pg/mL. Moreover, the “TF ELISA” value in experiment [1] (5 μM, DMSO control 7054) came to 7506 pg/ml/well; in experiment [1] (20 μM, DMSO control 7054), 7663 pg/ml/well.
